Values quoted from earlier work, collected in US7605152B2, “17-hydroxy-4-aza-androstan-3-ones as androgen receptor modulators” (priority 2002, dated 2009).

Columns and labels:
[1] = after 7 years of treatment
[2] = after a median of 22 months of treatment

Compound | increase in spinal BMD [1] [%] | reduction in nonvertebral fractures [2] [%] | reduction in spine fractures [2] [%]
NCCCC(O)(P(=O)([O-])O)P(=O)(O)O.O.O.O.[Na+] [alendronate, (4-amino-1-hydroxybutylidene)-bis-phosphonate monosodium trihydrate] | 11 |  | 
hPTH(1-34): human parathyroid hormone 1-34 fragment (SVSEIQLMHNLGKHLNSMERVEWLRKKLQDVHNF; Parathyroid hormone; UniProt P01270 32-65, looked up, fragment) |  | 54 | ≥ 65
